The record followed here is ChEMBL document CHEMBL1137558, “Synthesis and biological evaluation of new 2-arylcarbonyl-3-trifluoromethylquinoxaline 1,4-di-N-oxide derivatives and their reduced analogues” (2007).

Common to all, as to type: functional
The nature of test [1]: Anticancer activity against human NCI60 cells. The following applies: for CC50: read-out: LC50 (the source's name).
Test [2] is described as follows: Anticancer activity against nonsmall lung cancer cells. The following applies: Homo sapiens, Cancer cell lines.
A short description of test [3]: Anticancer activity against breast cancer cells. The following applies: Homo sapiens, Cancer cell lines.
A short description of test [4]: Anticancer activity against melanoma cells. The following applies: Homo sapiens, Melanoma cell.
Test [5] can be described thus: Anticancer activity against CNS cancer cells. Particulars: Homo sapiens, Cancer cell lines.
A short description of test [6]: Anticancer activity against renal cancer cells. The following applies: Homo sapiens, Cancer cell lines.
Test [7] can be described thus: Anticancer activity against ovarian cancer cells. The following applies: Homo sapiens, Cancer cell lines.
The nature of test [8]: Anticancer activity against prostate cancer cells. Particulars: Homo sapiens, Cancer cell lines.
A short description of test [9]: Anticancer activity against colon cancer cells. Particulars: Homo sapiens, Cancer cell lines.
A short description of test [10]: Anticancer activity against leukemia cells. The following applies: Homo sapiens, Leukemia cell.

As to `O=C(c1ccccc1)c1c(C(F)(F)F)[n+]([O-])c2cc(C(F)(F)F)ccc2[n+]1[O-]`, the 50% growth inhibitory concentration (GI50) in test [1] stood at 1.29 µM; in [2], 1.66 µM; in test [3], 1.41 µM; in [4] it was 1.23 µM; in test [5], 1.71 µM; in [6] it was 1.47 µM. Further, the GI50 in test [7] was 1.18 µM; in [8] it was 1.32 µM; in test [9] it was 1.71 µM; in [10], 0.77 µM. For the same compound, the concentration for total growth inhibition (TGI) in test [1] was found to be 2.95 µM. Moreover, the CC50 in [1] was determined as 8.32 µM.

In the case of `O=C(c1ccco1)c1c(C(F)(F)F)[n+]([O-])c2cc(F)c(F)cc2[n+]1[O-]`, the GI50 was determined as 0.38 µM in test [1]; 0.73 µM in test [2]; 0.2 µM in [3]; 0.56 µM in test [4]; 0.37 µM in test [5]; 0.36 µM in test [6]. Further, the GI50 in [7] was found to be 0.39 µM; in [8] it was 0.42 µM; in test [9], 0.19 µM; in test [10], 0.43 µM. In addition, the TGI in [1] is 1.48 µM. The CC50 in test [1] was 7.76 µM.

For the compound `COc1ccc2c(c1)[n+]([O-])c(C(=O)c1ccco1)c(C(F)(F)F)[n+]2[O-]`, the GI50 in test [1] was determined as 2.82 µM; in [2], 3.49 µM; in [3] it was 2.88 µM; in test [4], 3.03 µM; in test [5], 3.2 µM; in [6], 1.74 µM. Also, the GI50 in test [7] amounted to 2.51 µM; in test [8], 3.16 µM; in [9] it was 2.51 µM; in [10], 3.96 µM. This compound showed a TGI in test [1] of 18.6 µM. In [1], the CC50 is 74.1 µM.

Regarding `O=C(c1ccccc1)c1c(C(F)(F)F)[n+]([O-])c2ccc(F)cc2[n+]1[O-]`, the GI50 in test [1] stood at 0.78 µM; in test [2], 0.8 µM; in [3], 0.73 µM; in test [4], 0.95 µM; in [5] it was 1.45 µM; in test [6], 1.14 µM. In addition, the GI50 was 1.34 µM in test [7], 0.53 µM in test [8], 0.54 µM in [9] and 0.23 µM in [10]. This compound also gave a TGI in test [1] of 2.51 µM. Moreover, the CC50 in test [1] was determined as 9.12 µM.

For `COc1ccc2c(c1)[n+]([O-])c(C(=O)c1cccs1)c(C(F)(F)F)[n+]2[O-]`, the concentration for 50% growth inhibition (GI50) in test [1] is 5.01 µM; in test [2] it was 3.93 µM; in test [3], 4.92 µM; in test [4], 5.89 µM; in test [5], 6.24 µM; in [6], 5.11 µM. In addition, the GI50 in test [7] was 4.99 µM; in [8], 2.48 µM; in [9], 7.08 µM; in test [10] it was 4.43 µM. For the same compound, total growth inhibition in test [1] (TGI) required 29.5 µM. Also, the CC50 in test [1] amounted to 49 µM.

On to `O=C(c1ccco1)c1c(C(F)(F)F)[n+]([O-])c2cc(C(F)(F)F)ccc2[n+]1[O-]`, for which the GI50 in [1] was determined as 0.47 µM; in test [2] it was 0.48 µM; in [3] it was 0.48 µM; in [4], 0.86 µM; in test [5], 0.81 µM; in test [6], 0.49 µM. The 50% growth inhibitory concentration (GI50) in test [7] was 0.65 µM; in test [8], 0.19 µM; in [9], 0.28 µM; in test [10], 0.13 µM. The concentration for total growth inhibition (TGI) in test [1] was 1.2 µM. Moreover, the CC50 in [1] stood at 3.89 µM.

With `O=C(c1ccc2ccccc2c1)c1c(C(F)(F)F)[n+]([O-])c2cc(F)c(F)cc2[n+]1[O-]`, the GI50 in test [1] is 2.19 µM; in [2], 3.47 µM; in test [3], 2.36 µM; in test [4], 2.5 µM; in test [5], 2.51 µM; in [6], 2.18 µM. Moreover, the 50% growth inhibitory concentration (GI50) in [7] turned out to be 3.8 µM; in test [8] it was 1.46 µM; in [9] it was 1.71 µM; in test [10], 0.77 µM. Also, the TGI in [1] was 6.46 µM. Moreover, the CC50 in test [1] came to 23.4 µM.

As to `O=C(c1cccs1)c1c(C(F)(F)F)[n+]([O-])c2ccc(Cl)cc2[n+]1[O-]`, the GI50 in [1] stood at 0.07 µM; in test [2], 0.07 µM; in test [3], 0.08 µM; in test [4], 0.12 µM; in test [5], 0.09 µM; in [6] it was 0.03 µM. In addition, the GI50 in [7] stood at 0.16 µM; in [9], 0.04 µM; in test [10], 0.07 µM. In test [1], this compound yielded a TGI of 0.5 µM. Also, the CC50 in test [1] turned out to be 2.19 µM.

Turning to `O=C(c1ccco1)c1nc2ccc(C(F)(F)F)cc2[n+]([O-])c1C(F)(F)F`, the GI50 in test [1] amounted to 47.9 µM; in test [2], 41.9 µM; in test [3], 59.1 µM; in [4] it was 46.1 µM; in test [5], 35.5 µM; in [6], 49.7 µM. Moreover, the GI50 in test [7] came to 43 µM; in test [8] it was 35.1 µM; in [9], 75.1 µM; in [10], 48.4 µM. Moreover, the concentration for total growth inhibition (TGI) in test [1] came to 95.5 µM. The CC50 in [1] is more than 100 µM.

For `O=C(c1cccs1)c1c(C(F)(F)F)[n+]([O-])c2ccc(C(F)(F)F)cc2[n+]1[O-]`, in test [1], the CC50 amounted to 5.5 µM. In addition, the GI50 is 0.45 µM in test [2]; 0.5 µM in [3]; 0.9 µM in test [4]; 0.48 µM in test [5]; 0.31 µM in test [6]; 0.43 µM in [7]. Moreover, the GI50 in test [8] came out at 0.2 µM; in [9] it was 0.38 µM; in test [10], 0.2 µM.

Regarding `O=C(c1ccco1)c1c(C(F)(F)F)[n+]([O-])c2ccccc2[n+]1[O-]`, the concentration for 50% growth inhibition (GI50) in test [1] worked out at 0.41 µM; in [2], 0.35 µM; in test [3], 0.76 µM; in test [4], 0.67 µM; in [5] it was 0.4 µM; in test [6], 0.33 µM. Further, the concentration for 50% growth inhibition (GI50) came to 1.45 µM in test [7], 0.2 µM in test [8], 0.51 µM in [9] and 0.07 µM in test [10]. This compound returned a concentration for total growth inhibition (TGI) in [1] of 5.13 µM. Also, in test [1], the CC50 is 26.9 µM.

With `O=C(c1ccc2ccccc2c1)c1c(C(F)(F)F)[n+]([O-])c2ccc(F)cc2[n+]1[O-]`, the GI50 was found to be 1.15 µM in [1]; 1.54 µM in [2]; 1.7 µM in [3]; 1.12 µM in test [4]; 1.61 µM in test [5]; 1.48 µM in [6]. The GI50 in test [7] is 1.2 µM; in [8] it was 1.62 µM; in test [9] it was 0.74 µM; in test [10], 0.44 µM. Net growth in test [1] stopped (TGI) at 2.82 µM. Besides, the CC50 in test [1] worked out at 8.32 µM.

As to `Cc1ccc2c(c1)[n+]([O-])c(C(=O)c1ccco1)c(C(F)(F)F)[n+]2[O-]`, the GI50 is 0.66 µM in test [1]; 0.47 µM in test [2]; 0.66 µM in test [3]; 0.88 µM in test [4]; 0.74 µM in test [5]; 0.58 µM in test [6]. Moreover, the concentration for 50% growth inhibition (GI50) in [7] came out at 0.85 µM; in [8] it was 0.24 µM; in [9] it was 1.17 µM; in test [10], 0.26 µM. In test [1], this compound registered a total growth inhibition concentration (TGI) of 3.47 µM. The CC50 in test [1] came to 17.8 µM.

For the compound `O=C(c1ccc2ccccc2c1)c1c(C(F)(F)F)[n+]([O-])c2ccc(Cl)cc2[n+]1[O-]`, the concentration for 50% growth inhibition (GI50) in test [1] came out at 1.23 µM; in [2] it was 1.51 µM; in test [3] it was 1.15 µM; in test [4], 1.23 µM; in [5] it was 1.47 µM; in test [6], 1.38 µM. Besides, the GI50 was 1.2 µM in test [7], 1.48 µM in [8], 1.29 µM in test [9] and 0.65 µM in [10]. In test [1], this compound returned a TGI of 2.63 µM. The CC50 in test [1] came out at 5.5 µM.

As for `O=C(c1ccccc1)c1c(C(F)(F)F)[n+]([O-])c2ccc(C(F)(F)F)cc2[n+]1[O-]`, the concentration for 50% growth inhibition (GI50) was found to be 0.51 µM in test [1]; 0.64 µM in test [2]; 0.54 µM in test [3]; 1.13 µM in test [4]; 0.69 µM in test [5]; 0.33 µM in test [6]. The GI50 came out at 0.58 µM in test [7], 0.27 µM in test [8], 0.46 µM in test [9] and 0.24 µM in test [10]. In test [1], this compound gave a concentration for total growth inhibition (TGI) of 1.23 µM. Further, the CC50 in test [1] turned out to be 3.89 µM.

On to `O=C(c1ccc2ccccc2c1)c1c(C(F)(F)F)[n+]([O-])c2cc(C(F)(F)F)ccc2[n+]1[O-]`, for which the 50% growth inhibitory concentration (GI50) was found to be 1.58 µM in [1]; 1.78 µM in test [2]; 1.67 µM in test [3]; 1.48 µM in test [4]; 1.72 µM in test [5]; 1.55 µM in test [6]. For the same compound, the 50% growth inhibitory concentration (GI50) in test [7] is 1.69 µM; in test [8], 1.51 µM; in [9] it was 1.73 µM; in test [10] it was 1.2 µM. Moreover, total growth inhibition in [1] (TGI) required 3.47 µM. Also, in test [1], the CC50 was determined as 9.33 µM.

Consider `O=C(c1ccco1)c1c(C(F)(F)F)nc2ccc(C(F)(F)F)cc2[n+]1[O-]`, for which the GI50 in test [1] was determined as 37.1 µM; in test [2], 39.4 µM; in test [3] it was 34.3 µM; in test [4], 31.5 µM; in [5], 25.3 µM; in [6], 28.6 µM. Moreover, the 50% growth inhibitory concentration (GI50) in test [7] turned out to be 29.3 µM; in test [8], 38.5 µM; in test [9], 49.8 µM; in [10], 88.1 µM. The compound also displayed a TGI in test [1] of 83.2 µM. For the same compound, in test [1], the CC50 was more than 100 µM.

On to `O=C(c1ccco1)c1c(C(F)(F)F)nc2cc(C(F)(F)F)ccc2[n+]1[O-]`, for which the GI50 in test [1] worked out at 46.8 µM; in test [2], 47.7 µM; in [3] it was 38.5 µM; in test [4] it was 80.6 µM; in [5], 24.4 µM; in test [6], 34.6 µM. Also, the GI50 was determined as 40.4 µM in test [7], 44.7 µM in test [8], 85.4 µM in [9] and 43.6 µM in [10]. Net growth in [1] stopped (TGI) at 89.1 µM. In [1], the CC50 is more than 100 µM.
